Data from patent US9273057B2 (Bristol-Myers Squibb Company, priority 2012, dated 2016).
Structures can show the parent of a compound that is named as a salt.

The compounds below were run against CK2A1 (CK2α/β) (Homo sapiens, UniProt P68400) (assay: CK2 kinase assay, CK2A1 (CK2α/β)). Settings: Table A; read-out: CK2A1 (CK2α/β) (IC50).
Chain of CK2A1 (CK2α/β) (P68400 whole entry, species assumed): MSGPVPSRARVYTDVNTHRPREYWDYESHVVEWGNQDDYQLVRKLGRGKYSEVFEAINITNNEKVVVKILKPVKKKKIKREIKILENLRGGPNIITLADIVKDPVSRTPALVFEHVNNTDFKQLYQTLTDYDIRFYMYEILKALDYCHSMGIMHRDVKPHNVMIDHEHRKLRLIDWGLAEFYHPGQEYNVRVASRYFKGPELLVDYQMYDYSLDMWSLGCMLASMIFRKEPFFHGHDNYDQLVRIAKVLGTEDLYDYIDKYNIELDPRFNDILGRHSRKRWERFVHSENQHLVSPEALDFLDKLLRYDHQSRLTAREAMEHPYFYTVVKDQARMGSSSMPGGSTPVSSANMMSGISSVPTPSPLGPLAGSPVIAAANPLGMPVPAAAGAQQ
Chain of CK2A1 (CK2α/β) (P67870 whole entry partner, species assumed): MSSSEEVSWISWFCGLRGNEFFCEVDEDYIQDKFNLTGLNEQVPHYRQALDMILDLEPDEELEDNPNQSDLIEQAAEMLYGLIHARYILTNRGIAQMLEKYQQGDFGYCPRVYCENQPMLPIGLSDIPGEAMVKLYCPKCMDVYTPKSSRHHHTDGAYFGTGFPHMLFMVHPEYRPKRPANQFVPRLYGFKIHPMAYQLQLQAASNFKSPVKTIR
Format: biochemical
An IC50 of 0.53 nM was found for `N#Cc1cc(Nc2nc(NC3CC3)c3ncc(C#N)n3n2)c(Cl)c(N2CCN(C(=O)Cn3ccnc3)CC2)c1` [Example 97, 2-((2-chloro-5-cyano-3-(4-(1H-imidazol-1-ylacetyl)-1-piperazinyl)phenyl)amino)-4-(cyclopropylamino) imidazo[2,1-f][1,2,4] triazine-7-carbonitrile] in this work.
An IC50 of 0.78 nM was found for `CCNc1nc(Nc2cc(C#N)cc(N3CCC(N(C(=O)OC)C4COC4)CC3)c2Cl)nn2c(C#N)cnc12` [Example 366, methyl (1-(2-chloro-5-cyano-3-((7-cyano-4-(ethylamino)imidazo[2,1-f][1,2,4]triazin-2-yl)amino)phenyl)piperidin-4-yl)(oxetan-3-yl)carbamate] in this work.
An IC50 of 1.35 nM was found for `N#Cc1cc(Nc2nc(NC3CC3)c3ncc(C#N)n3n2)c(Cl)c(N2CCN(C3CC3)CC2)c1` [Example 593, 2-{[2-chloro-5-cyano-3-(4-cyclopropylpiperazin-1-yl)phenyl]amino}-4-(cyclopropylamino)imidazo [2,1-f][1,2,4]triazine-7-carbonitrile] in this work.
An IC50 of 2.03 nM was found for `CCNc1nc(Nc2cc(C#N)cc(N3CC[C@@H](NC(=O)OC)[C@H](OC(=O)[C@@H](N)C(C)C)C3)c2Cl)nn2c(C#N)cnc12` [Example 346, (S)-(3R,4R)-1-(2-chloro-5-cyano-3-((7-cyano-4-(ethylamino)imidazo[2,1-f][1,2,4]triazin-2-yl)amino)phenyl)-4-((methoxycarbonyl)amino)piperidin-3-yl 2-amino-3-methylbutanoate] in this work.
An IC50 of 2.05 nM was found for `CCNc1nc(Nc2cc(C#N)cc(N3CC[C@@H]4[C@@H](C3)OC(=O)N4[C@H]3CCOC3)c2Cl)nn2c(C#N)cnc12` (single isomer, unassigned) [Example 842] in this work.
An IC50 of 1.74 nM was found for `N#Cc1cnc2c(NC3CC3)nc(Nc3cc(C(F)F)cc(N4CCN(C5CCOCC5)CC4)c3Cl)nn12` [Example 247, 2-((2-chloro-5-(difluoromethyl)-3-(4-(tetrahydro-2H-pyran-4-yl)-1-piperazinyl)phenyl)amino)-4-(cyclopropylamino)imidazo[2,1-f][1,2,4]triazine-7-carbonitrile] in this work.
An IC50 of 0.58 nM was found for `N#Cc1cc(Nc2nc(NC3CC3)c3ncc(C#N)n3n2)c(Cl)c(N2CCC(NC3COC3)CC2)c1` [Example 110, 2-((2-chloro-5-cyano-3-(4-(3-oxetanylamino)-1-piperidinyl)phenyl)amino)-4-(cyclopropylamino)imidazo [2,1-f][1,2,4]triazine-7-carbonitrile] in this work.
An IC50 of 2.24 nM was found for `CNC(C)CC(C)c1cc(Cl)c(Nc2nc(NC3CC3)c3ncc(C#N)n3n2)cc1C#N` (stereo not shown) [Example 733, 2-({2-chloro-5-cyano-4-[4-(methylamino)pentan-2-yl]phenyl}amino)-4-(cyclopropylamino)imidazo [2,1-f][1,2,4]triazine-7-carbonitrile] in this work.
An IC50 of 4.89 nM was found for `N#Cc1cc(Nc2nc(NC3CC3)c3ncc(C#N)n3n2)c(Cl)c(N2CCN(C3CN(C(=O)CCO)C3)CC2)c1` [Example 495, 2-[(2-chloro-5-cyano-3-{4-[1-(3-hydroxypropanoyl)azetidin-3-yl]piperazin-1-yl}phenyl)amino]-4-(cyclopropylamino)imidazo[2,1-f][1,2,4]triazine-7-carbonitrile] in this work.
An IC50 of 1.8 nM was found for `CN1CC2(CCN(c3cc(C#N)cc(Nc4nc(NC5CC5)c5ncc(C#N)n5n4)c3Cl)CC2)C1` [Example 798, 2-((2-chloro-5-cyano-3-(2-methyl-2,7-diazaspiro[3.5]nonan-7-yl)phenyl)amino)-4-(cyclopropylamino)imidazo[2,1-f][1,2,4]triazine-7-carbonitrile] in this work.
An IC50 of 1.54 nM was found for `N#Cc1cc(Nc2nc(NC3CC3)c3ncc(C#N)n3n2)c(Cl)c(N2CCN(C(=O)CN3CCC3)CC2)c1` [Example 584, 2-[(3-{4-[2-(azetidin-1-yl)acetyl]piperazin-1-yl}-2-chloro-5-cyanophenyl)amino]-4-(cyclopropylamino)imidazo [2,1-f][1,2,4]triazine-7-carbonitrile] in this work.
An IC50 of 1.2 nM was found for `CCNc1nc(Nc2cc(C#N)cc(N3CC[C@@H](NC(=O)OC)C(NCC(C)(C)O)C3)c2Cl)nn2c(C#N)cnc12` (stereo in doubt) [Example 760, methyl N-[(3S,4R)-1-(2-chloro-5-cyano-3-{[7-cyano-4-(ethylamino)imidazo[2,1-f][1,2,4]triazin-2-yl]amino}phenyl)-3-[(2-hydroxy-2-methylpropyl)amino]piperidin-4-yl] carbamate] in this work.
An IC50 of 1.48 nM was found for `N#Cc1cc(CN2CCNC(C(F)(F)F)C2)c(Cl)c(Nc2nc(NC3CC3)c3ncc(C#N)n3n2)c1` (racemic) [Example 696, (+/−)-2-((2-chloro-5-cyano-3-((3-(trifluoromethyl)piperazin-1-yl)methyl)phenyl)amino)-4-(cyclopropylamino)imidazo[2,1-f][1,2,4]triazine-7-carbonitrile] in this work.
An IC50 of 0.43 nM was found for `CN(CCN)c1cc(Cl)c(Nc2nc(NC3CC3)c3ncc(C#N)n3n2)cc1C#N` [Example 412, 2-((4-((2-aminoethyl)(methyl)amino)-2-chloro-5-cyanophenyl)amino)-4-(cyclopropylamino)imidazo[2,1-f][1,2,4]triazine-7-carbonitrile] in this work.
An IC50 of 0.67 nM was found for `N#CCNC1CCN(c2cc(C#N)cc(Nc3nc(NC4CC4)c4ncc(C#N)n4n3)c2Cl)CC1` [Example 141, 2-((2-chloro-5-cyano-3-(4-((cyanomethyl)amino)-1-piperidinyl)phenyl)amino)-4-(cyclopropylamino)imidazo [2,1-f][1,2,4]triazine-7-carbonitrile] in this work.
An IC50 of 0.45 nM was found for `N#Cc1cc(CCC2CNCCO2)c(Cl)c(Nc2nc(NC3CC3)c3ncc(C#N)n3n2)c1` (racemic) [Example 739, (+/−)-2-((2-chloro-5-cyano-3-(2-(morpholin-2-yl)ethyl)phenyl)amino)-4-(cyclopropylamino) imidazo[2,1-f][1,2,4]triazine-7-carbonitrile] in this work.
An IC50 of 0.35 nM was found for `N#Cc1cc(Nc2nc(NC3CC3)c3ncc(C#N)n3n2)c(Cl)c(C2(F)COC2)c1` [Example 660, 2-((2-chloro-5-cyano-3-(3-fluorooxetan-3-yl)phenyl)amino)-4-(cyclopropylamino)imidazo[2,1-f][1,2,4]triazine-7-carbonitrile] in this work.
An IC50 of 0.76 nM was found for `CN1CCN(Cc2cc(C#N)cc(Nc3nc(NC4CC4)c4ncc(C#N)n4n3)c2Cl)CC1` [Example 670, 2-((2-chloro-5-cyano-3-((4-methylpiperazin-1-yl)methyl)phenyl)amino)-4-(cyclopropylamino)imidazo[2,1-f][1,2,4]triazine-7-carbonitrile] in this work.
An IC50 of 1 nM was found for `CC(C)(O)C1CCN(c2cc(C#N)cc(Nc3nc(NC4CC4)c4ncc(C#N)n4n3)c2Cl)CC1` [Example 16, 2-((2-chloro-5-cyano-3-(4-(1-hydroxy-1-methylethyl)-1-piperidinyl)phenyl)amino)-4-(cyclopropylamino)imidazo [2,1-f][1,2,4]triazine-7-carbonitrile] in this work.
An IC50 of 1.17 nM was found for `COC(=O)N[C@H]1CN(c2cc(C#N)cc(Nc3nc(NC4CC4)c4ncc(C#N)n4n3)c2Cl)C[C@H]1CF` [Example 287, methyl ((3R,4R)-1-(2-chloro-5-cyano-3-((7-cyano-4-(cyclopropylamino)imidazo[2,1-f][1,2,4]triazin-2-yl)amino)phenyl)-4-(fluoromethyl)-3-pyrrolidinyl)carbamate] in this work.
An IC50 of 1.15 nM was found for `N#Cc1cnc2c(NC3CC3)nc(Nc3cc(OC(F)F)cc(N4CCN(C5CNC5)CC4)c3Cl)nn12` [Example 560, 2-((3-(4-(azetidin-3-yl)piperazin-1-yl)-2-chloro-5-(difluoromethoxy)phenyl)amino)-4-(cyclopropylamino)imidazo[2,1-f][1,2,4]triazine-7-carbonitrile] in this work.
An IC50 of 4.9 nM was found for `C[C@@H]1CN(c2cc(C#N)cc(Nc3nc(NC4CC4)c4ncc(C#N)n4n3)c2Cl)C[C@H]1O` (racemic) [Example 20, (+/−) 2-((2-chloro-5-cyano-3-((3S,4R)-3-hydroxy-4-methyl-1-pyrrolidinyl)phenyl)amino)-4-(cyclopropylamino)imidazo [2,1-f][1,2,4]triazine-7-carbonitrile] in this work.
An IC50 of 0.69 nM was found for `CC1(C)CN2CCN(c3cc(C#N)cc(Nc4nc(NC5CC5)c5ncc(C#N)n5n4)c3Cl)C[C@H]2CO1` [Example 303, (S)-2-((2-chloro-5-cyano-3-(3,3-dimethylhexahydropyrazino[2,1-c][1,4]oxazin-8(1H)-yl)phenyl)amino)-4-(cyclopropylamino)imidazo[2,1-f][1,2,4]triazine-7-carbonitrile, HCl] in this work.
An IC50 of 1.82 nM was found for `CCNC(=O)OCC1CN(c2cc(C#N)cc(Nc3nc(NC4CC4)c4ncc(C#N)n4n3)c2Cl)CCN1C` (stereo not shown) [Example 703, [4-(2-chloro-5-cyano-3-{[7-cyano-4-(cyclopropylamino)imidazo[2,1-f][1,2,4]triazin-2-yl]amino}phenyl)-1-methylpiperazin-2-yl]methyl N-ethylcarbamate] in this work.
An IC50 of 0.67 nM was found for `COCCOC(=O)N1CCN(c2cc(C#N)cc(Nc3nc(NC4CC4)c4ncc(C#N)n4n3)c2Cl)CC1` [Example 68, 2-methoxyethyl 4-(2-chloro-5-cyano-3-((7-cyano-4-(cyclopropylamino)imidazo[2,1-f] [1,2,4]triazin-2-yl)amino)phenyl)-1-piperazinecarboxylate] in this work.
An IC50 of 2.49 nM was found for `N#Cc1cc(Nc2nc(NC3CC3)c3ncc(C#N)n3n2)c(Cl)c(N2CCC[C@@H](N)C2)c1` [Example 40, (R)-2-(3-(3-aminopiperidin-1-yl)-2-chloro-5-cyanophenylamino)-4-(cyclopropylamino)imidazo [1,2-f][1,2,4]triazine-7-carbonitrile] in this work.
An IC50 of 0.99 nM was found for `CS(=O)(=O)N1CCN(CC(O)c2cc(C#N)cc(Nc3nc(NC4CC4)c4ncc(C#N)n4n3)c2Cl)CC1` (stereo not shown) [Example 687, 2-((2-chloro-5-cyano-3-(1-hydroxy-2-(4-(methylsulfonyl)piperazin-1-yl)ethyl)phenyl)amino)-4-(cyclopropylamino)imidazo[2,1-f][1,2,4]triazine-7-carbonitrile] in this work.
An IC50 of 9.85 nM was found for `N#Cc1cc(Nc2nc(NC3CC3)c3ncc(C#N)n3n2)c(Cl)c(N2CCNCC2=O)c1` [Example 628, 2-((2-chloro-5-cyano-3-(2-oxopiperazin-1-yl)phenyl)amino)-4-(cyclopropylamino)imidazo[2,1-f][1,2,4]triazine-7-carbonitrile] in this work.
